Test results: US20150374815A1, “METHODS AND COMPOSITIONS FOR TREATMENT WITH SYNTHETIC NANOCARRIERS AND IMMUNE CHECKPOINT INHIBITORS” (Selecta Biosciences, Inc., priority 2014, published 2015)
Entries after “also recorded” stand apart in the source; their conditions may differ.

Tests used:
IL-6 = experiment: Serum cytokine induction after NC-CpG or free CpG inoculation (ELISA); assay type: in vivo; conditions: s.c.; 100 μg NC-CpG (containing 5% CpG-1826) or 5 μg free CpG-1826; pooled sera, 3/group; FIG. 4
Method: (§1) TNF-α and IL-6 were induced in sera of NC-CpG- and free CpG-inoculated animals. Animal groups were inoculated (s.c.) either with 100 μg of NC-CpG (containing 5% CpG-1826) or with 5 μg of free CpG-1826. At different time-points post inoculation serum was collected from the animals (3/group) by terminal bleed, pooled and assayed for cytokine presence in ELISA (BD).

TNF-α = experiment: as above; assay type: in vivo; conditions: s.c.; 100 μg NC-CpG (containing 5% CpG-1826) or 5 μg free CpG-1826; pooled sera, 3/group; FIG. 4
Method: as §1

5′-TCCATGACGTTCCTGACGTT-3′ [free CpG]
induction of IL-6 in serum (IL-6): induced; also recorded: substantially higher induction | induction of TNF-α in serum (TNF-α): induced; also recorded: substantially higher induction
